Experimental findings from ChEMBL document CHEMBL5214939, “Design, synthesis and biological evaluations of novel farnesoid X receptor (FXR) agonists” (Bioorg Med Chem Lett, 2022) are described below.

Data set [1] in a line: AUCinfinity in mouse at 5 mg/kg, iv. Type of data set: ADME, organism-based. Details: time infinity, dose 5 mg/kg, route iv. The settings on record: in vivo.
Data set [2] is described as follows: Half life in mouse at 20 mg/kg, po. Type of data set: ADME, organism-based. The settings on record: in vivo.
Data set [3] in a line: Tmax in mouse at 20 mg/kg, po. As to conditions: in vivo. Type of data set: ADME, organism-based.
Data set [4] can be described thus: Cmax in mouse at 20 mg/kg, po. The format is ADME, organism-based. Details: dose 20 mg/kg, route po. The settings on record: in vivo.
Data set [5] can be described thus: Clearance in mouse at 20 mg/kg, po or 5 mg/kg, iv. As to conditions: in vivo. The format is ADME, organism-based.
Data set [6] is described as follows: AUC (0 to t) in mouse at 20 mg/kg, po. The format is ADME, organism-based. Also noted: dose 20 mg/kg, route po. As to conditions: in vivo.
A short description of data set [7]: AUCinfinity in mouse at 20 mg/kg, po. Type of data set: ADME, organism-based. Details: time infinity, dose 20 mg/kg, route po. The settings on record: in vivo.
Data set [8] in a line: Oral bioavailability in mouse at 20 mg/kg. The format is ADME, organism-based. The settings on record: in vivo.
Data set [9] can be described thus: AUC (0 to t) in mouse at 5 mg/kg, iv. The format is ADME, organism-based. Also noted: dose 5 mg/kg, route iv. As to conditions: in vivo.
Another data set concerns the target T1, Bile acid receptor (Homo sapiens, UniProt Q96RI1).
T1 sequence (Q96RI1 whole entry): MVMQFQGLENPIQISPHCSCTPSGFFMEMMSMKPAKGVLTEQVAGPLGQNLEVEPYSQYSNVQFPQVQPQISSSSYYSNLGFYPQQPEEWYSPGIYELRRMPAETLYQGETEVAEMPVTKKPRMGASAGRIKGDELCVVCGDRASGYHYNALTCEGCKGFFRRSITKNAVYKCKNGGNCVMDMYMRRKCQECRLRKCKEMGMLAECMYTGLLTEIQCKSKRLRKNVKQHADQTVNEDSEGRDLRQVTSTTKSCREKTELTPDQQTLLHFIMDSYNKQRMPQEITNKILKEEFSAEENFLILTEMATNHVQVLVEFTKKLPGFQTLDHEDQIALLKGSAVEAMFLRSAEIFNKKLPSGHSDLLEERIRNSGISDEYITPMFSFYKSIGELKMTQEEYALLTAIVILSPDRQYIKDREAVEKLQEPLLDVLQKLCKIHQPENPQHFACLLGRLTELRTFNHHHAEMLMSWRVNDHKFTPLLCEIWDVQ
The experiment in a line: Agonist activity at FXR in HEK293T cells assessed as transcriptional activity by measuring […] by luciferase reporter assay. The format is cell-based. (In general: Reporter assays use an easily measured gene product as a stand-in for the process of interest.)

The species entered for data set [10] is Mus musculus. In words: Protection against Con-A induced autoimmune hepatitis mouse model assessed as reduction in ALT level. The format is functional, organism-based.
The species entered for data set [11] is Mus musculus. In words: Protection against Con-A induced autoimmune hepatitis mouse model assessed as reduction in AST level. Type of data set: functional, organism-based.
Data set [12] can be described thus: Cmax in mouse at 100 mg/kg, po. Type of data set: ADME, organism-based. Also noted: dose 100 mg/kg, route po. As to conditions: in vivo.
The nature of data set [13]: AUCinfinity in mouse at 100 mg/kg, po. The settings on record: in vivo. The format is ADME, organism-based. Details: time infinity, dose 100 mg/kg, route po.
A short description of data set [14]: Half life in mouse at 100 mg/kg, po. As to conditions: in vivo. The format is ADME, organism-based.
The nature of data set [15]: Oral bioavailability in mouse at 100 mg/kg. The format is ADME, organism-based. The settings on record: in vivo.
A short description of data set [16]: Clearance in mouse at 100 mg/kg, po or 5 mg/kg, iv. As to conditions: in vivo. The format is ADME, organism-based.
The nature of data set [17]: AUC (0 to t) in mouse at 100 mg/kg, po. Type of data set: ADME, organism-based. The settings on record: in vivo. Also noted: dose 100 mg/kg, route po.
The nature of data set [18]: Tmax in mouse at 100 mg/kg, po. The format is ADME, organism-based. As to conditions: in vivo.

Each structure is given as a SMILES string. Active and inactive are the calls of the source. Bounds are passed on as bounds.

The AUC is concentration integrated over time. Lower therefore signals low exposure. For orientation: Tmax means the time from dosing to the highest level. In general, Cmax refers to the peak of the concentration-time curve. What is called AUC(0-t) is exposure summed from dosing to a finite time, without extrapolation to infinity. Higher therefore signals high exposure. With `CC(C)c1onc(-c2c(Cl)cccc2Cl)c1COc1ccc(/C=C/c2cccc(C(=O)O)c2)c(Cl)c1`, the results for the AUC in data set [1] and in [7] were 3162 ng·h/mL and 85283 ng·h/mL, respectively. The same compound registered a t1/2 in data set [2] of 1.53 h. In data set [3], the Tmax worked out at 0.5 h. Moreover, in data set [4], the Cmax turned out to be 4787 ng/mL. This compound had a CL in data set [5] of 26.3 mL/min/kg. The exposure AUC(0-t) stood at 85200 ng·h/mL in data set [6] and 3140 ng·h/mL in data set [9]. In addition, the F in [8] turned out to be 42.81%.

Usually EC50 stands for the midpoint of the concentration-response curve. As to `CN(Cc1ccc(C(=O)NO)cc1)c1ccc(OCc2c(-c3c(Cl)cccc3Cl)nsc2C2CC2)nc1C(F)(F)F`, the concentration for a half-maximal effect (EC50) on Bile acid receptor is over 30000 nM.

With `CN(Cc1cccc(C(=O)NO)c1)c1ccc(OCc2c(-c3c(Cl)cccc3Cl)nsc2C2CC2)nc1C(F)(F)F`, the EC50 at Bile acid receptor worked out at 1090 nM.

With `CC(C)c1snc(-c2c(Cl)cccc2Cl)c1COc1ccc(/C=C/c2cccc(C(=O)O)c2)c(Cl)c1`, the EC50 on Bile acid receptor is 570 nM.

With `CC(C)c1snc(-c2c(Cl)cccc2Cl)c1COc1ccc(N(C)Cc2ccc(C(=O)O)cc2)c(C(F)(F)F)n1`, the outcome in the data set listed under Mus musculus [10] and in the data set filed under Mus musculus [11] was Active. Moreover, on Bile acid receptor, the EC50 worked out at 350 nM.

For `CC(C)c1snc(-c2c(Cl)cccc2Cl)c1COc1ccc(N(C)CC2CCCC(C(=O)O)C2)c(C(F)(F)F)n1` (centres undefined), the concentration giving a half-maximal response (EC50) at Bile acid receptor is over 30000 nM.

As a reminder, the half-life is the time needed for the level to fall by half in the phase considered. Low values mean rapid decline, high ones slow decline. As to `CN(Cc1cccc(C(=O)O)c1)c1ccc(OCc2c(-c3c(Cl)cccc3Cl)nsc2C2CC2)nc1C(F)(F)F`, the result in the data set filed under Mus musculus [10] and in the data set listed under Mus musculus [11] was Active. Further, the area under the curve (AUC) was 5822 ng·h/mL in [1] and 5415 ng·h/mL in data set [13]. For the same compound, in data set [12], the peak level (Cmax) was 40200 ng/mL. Besides, the half-life in data set [14] was 2.6 h. This compound also registered a F in data set [15] of 73%. The same compound had a CL in [16] of 14.3 mL/min/kg. The EC50 on Bile acid receptor was 270 nM. Also, the AUC(0-t) amounted to 5370 ng·h/mL in data set [17] and 5760 ng·h/mL in [9]. Moreover, the time of peak concentration (Tmax) in data set [18] is 0.5 h.

Regarding `CCN(Cc1ccc(C(=O)O)cc1)c1ccc(OCc2c(-c3c(Cl)cccc3Cl)nsc2C(C)C)nc1C(F)(F)F`, the EC50 on Bile acid receptor is 2160 nM.

In the case of `CN(Cc1ccc(C(=O)O)cc1)c1ccc(OCc2c(-c3c(Cl)cccc3Cl)nsc2C2CC2)nc1C(F)(F)F`, in the data set listed under Mus musculus [10], the outcome was Active. Further, at Bile acid receptor, the half-maximal effective concentration (EC50) came out at 310 nM.

For `CN(Cc1ccc(C(=O)O)cc1)c1ccc(OCc2c(-c3c(Cl)cccc3Cl)nsc2C2CC2)cc1C(F)(F)F`, the result in the data set filed under Mus musculus [10] was Active. Besides, the 50% effective concentration (EC50) on Bile acid receptor came to 410 nM.

Turning to `CC(C)c1snc(-c2c(Cl)cccc2Cl)c1COc1ccc(N(C)Cc2ccc(C(=O)O)s2)c(C(F)(F)F)n1`, on Bile acid receptor, the half-maximal effective concentration (EC50) worked out at 510 nM.
